Measured values published in the NIST ThermoML archive (doi:10.1021/je050006+).

Experiments:
[1] = xn = mol fraction of the nth substance listed; details: 101.3 kPa, Liquid
[2] = excess molar enthalpy (molar enthalpy of mixing); xn = mol fraction of the nth substance listed; details: 101.3 kPa, Liquid

C=C1CCC2CC1C2(C)C (stereo not drawn) [β-pinene] + CCCO
Details | excess molar enthalpy [kcal/mol] | mass density [kg/m3] | speed of sound [m/s]
[1], 283.15 K, x1 = 0.0505 | – | 818.13 | 1265.6
[1], 283.15 K, x1 = 0.1024 | – | 824.2 | 1272.7
[1], 283.15 K, x1 = 0.2046 | – | 834.58 | 1285.3
[1], 283.15 K, x1 = 0.3046 | – | 843.01 | 1296
[1], 283.15 K, x1 = 0.405 | – | 850.35 | 1305.5
[1], 283.15 K, x1 = 0.5035 | – | 856.46 | 1313.7
[1], 283.15 K, x1 = 0.599 | – | 861.68 | 1321.2
[1], 283.15 K, x1 = 0.7026 | – | 866.65 | 1328.8
[1], 283.15 K, x1 = 0.8026 | – | 871.06 | 1336.3
[1], 283.15 K, x1 = 0.8834 | – | 874.33 | 1342.6
[1], 283.15 K, x1 = 0.9488 | – | – | 1348.5
[1], 283.15 K, x1 = 0.9489 | – | 876.85 | –
[1], 283.15 K, x1 = 0.9812 | – | 878.27 | 1352.9
[1], 298.15 K, x1 = 0.053 | – | 806.47 | 1212.9
[1], 298.15 K, x1 = 0.1036 | – | 812.35 | 1219
[1], 298.15 K, x1 = 0.2039 | – | 822.4 | 1229.7
[1], 298.15 K, x1 = 0.3038 | – | 830.81 | 1239.1
[1], 298.15 K, x1 = 0.3966 | – | 837.49 | 1246.9
[1], 298.15 K, x1 = 0.5122 | – | 844.67 | 1255.7
[1], 298.15 K, x1 = 0.6005 | – | 849.44 | 1261.8
[1], 298.15 K, x1 = 0.699 | – | 854.2 | 1268.6
[1], 298.15 K, x1 = 0.793 | – | – | 1275.4
[1], 298.15 K, x1 = 0.7931 | – | 858.43 | –
[1], 298.15 K, x1 = 0.8937 | – | 862.59 | 1283.3
[1], 298.15 K, x1 = 0.9426 | – | 864.54 | 1287.9
[1], 298.15 K, x1 = 0.9834 | – | 866.31 | 1293.6
[1], 313.15 K, x1 = 0.0514 | – | 794.24 | 1160.5
[1], 313.15 K, x1 = 0.1021 | – | 800.04 | 1165.7
[1], 313.15 K, x1 = 0.2032 | – | 810.14 | 1175
[1], 313.15 K, x1 = 0.307 | – | 818.69 | 1183.4
[1], 313.15 K, x1 = 0.405 | – | 825.65 | 1190.4
[1], 313.15 K, x1 = 0.5007 | – | 831.57 | 1196.5
[1], 313.15 K, x1 = 0.6004 | – | 837.06 | 1202
[1], 313.15 K, x1 = 0.7051 | – | 842.2 | 1206.4
[1], 313.15 K, x1 = 0.7928 | – | 846.14 | 1213.3
[1], 313.15 K, x1 = 0.8931 | – | 850.44 | 1222.1
[1], 313.15 K, x1 = 0.9407 | – | 852.42 | 1225.6
[1], 313.15 K, x1 = 0.9786 | – | 854.11 | 1228.9
[2], 283.15 K, x1 = 0.067 | 0.0146 | – | –
[2], 283.15 K, x1 = 0.135 | 0.0304 | – | –
[2], 283.15 K, x1 = 0.263 | 0.0564 | – | –
[2], 283.15 K, x1 = 0.38 | 0.0755 | – | –
[2], 283.15 K, x1 = 0.488 | 0.0891 | – | –
[2], 283.15 K, x1 = 0.585 | 0.0963 | – | –
[2], 283.15 K, x1 = 0.677 | 0.0994 | – | –
[2], 283.15 K, x1 = 0.764 | 0.097 | – | –
[2], 283.15 K, x1 = 0.855 | 0.086 | – | –
[2], 283.15 K, x1 = 0.926 | 0.0674 | – | –
[2], 283.15 K, x1 = 0.97 | 0.0473 | – | –
[2], 298.15 K, x1 = 0.067 | 0.0213 | – | –
[2], 298.15 K, x1 = 0.135 | 0.0423 | – | –
[2], 298.15 K, x1 = 0.263 | 0.0803 | – | –
[2], 298.15 K, x1 = 0.38 | 0.109 | – | –
[2], 298.15 K, x1 = 0.488 | 0.129 | – | –
[2], 298.15 K, x1 = 0.585 | 0.14 | – | –
[2], 298.15 K, x1 = 0.677 | 0.147 | – | –
[2], 298.15 K, x1 = 0.764 | 0.14 | – | –
[2], 298.15 K, x1 = 0.855 | 0.127 | – | –
[2], 298.15 K, x1 = 0.926 | 0.0978 | – | –
[2], 298.15 K, x1 = 0.97 | 0.0626 | – | –
[2], 313.15 K, x1 = 0.067 | 0.0277 | – | –
[2], 313.15 K, x1 = 0.135 | 0.0581 | – | –
[2], 313.15 K, x1 = 0.263 | 0.11 | – | –
[2], 313.15 K, x1 = 0.38 | 0.15 | – | –
[2], 313.15 K, x1 = 0.488 | 0.177 | – | –
[2], 313.15 K, x1 = 0.585 | 0.192 | – | –
[2], 313.15 K, x1 = 0.677 | 0.196 | – | –
[2], 313.15 K, x1 = 0.764 | 0.188 | – | –
[2], 313.15 K, x1 = 0.855 | 0.163 | – | –
[2], 313.15 K, x1 = 0.926 | 0.124 | – | –
[2], 313.15 K, x1 = 0.97 | 0.0791 | – | –
